In patent publication US7364882B1, “Enzymatic reduction of a nitrile containing compound to the corresponding amine” (State of Oregon Acting by and Through the State Board of …, priority 2004, dated 2008):
Read-outs that look alike come from different tables or passages of the source.

Tests used:
Format in all cases: biochemical
QueF = QueF nitrile oxido-reductase assay, continuous UV monitoring of NADPH oxidation (preQ0 to preQ1)
Method: PreQ0 oxido-reductase activity was determined using a number of redox cofactors, and activity was observed only in the presence of NADPH. […] […] Assays were run from 30 seconds to 2 hours.
To confirm that preQ1 was the reduced product as predicted, reaction assays were analyzed by reverse-phase HPLC (Bondclone 10 C-18, 300×3.9 mm) with a mobile phase of 20 mM ammonium actetate (pH 6.0) and methanol. With a flow-rate of 1 mL/min a series of linear gradients were developed from 20 mM ammonium acetate (pH 6.0) (buffer U) to 75% methanol in buffer U (buffer V) in the following manner (beginning time and ending time and linear increase to % V): 0-20.0 min, 0% V; 20.0-30.0 min, 8% V; 30.0-40.0 min, 20% V; 40.0-42.0 min, 100% V; 42.0-50.0 min, 100% V; and 50.0.0-52.0 min, 0% V. PreQ0 and preQ1 were detected with a diode array detector.

[1] = standard nitrile oxido-reductase assay of B. subtilis QueF mutants; conditions: Glu98 substitution in SEQ ID NO: 2
Method: Assays were typically carried out at 30° C. in a final volume of 80 μL in a solution of 50 mM HEPES (pH 7.5), 50 mM KCl, 1 mM DTT, 2-150 μM NADPH, 0.2-150 μM preQ0, and 10-1000 nM QueF. Assays were run from 30 seconds to 2 hours.

[2] = GTP cyclohydrolase activity assays (radiochemical [14C]formic acid release, fluorescence, HPLC); conditions: three assays, large screen of conditions (cyclohydrolase I, II, III)
Excerpt: GTP cyclohydrolase activity was investigated using three different assays (radiochemical based release of [^14C]formic acid, fluorescence, or HPLC analysis of reactions) and a large screen of assay conditions (including those for cyclohydrolase I, II, and III activity).

For `N#Cc1c[nH]c2nc(N)[nH]c(=O)c12` [preQ0, 7-cyano-7-deazaguanine], the Km (QueF; read-out: KM for preQ0) was < 1 µM and the kcat (QueF; variable NADPH and constant, saturating preQ0) was 0.01 s⁻¹.

For `NCC1C=Nc2nc(N)[nH]c(=O)c21` (stereo not shown) [preQ1, 7-aminomethyl-7-deazaguanine], the “preQ0 generated when the reaction was run in reverse” value (QueF; reverse reaction with preQ1 and NADP+) was < 1%.

“reduced form of nicotinamide adenine dinucleotide phosphate [NADPH]” showed a Km (QueF; variable NADPH and constant, saturating preQ0, read-out: KM for NADPH) of 36 µM.

B1: E98M: QueF with substitution of Glu98 in SEQ ID NO: 2 to Met (protein)
chain: MTTRKESELEGVTLLGNQGTNYLFEYAPDVLESFPNKHVNRDYFVKFNCPEFTSLCPKTGQPDFATIYISYIPDEKMVESKSLKLYLFSFRNHGDFHMDCMNIIMNDLIELMDPRYIEVWGKFTPRGGISIDPYTNYGKPGTKYEKMAEYRMMNHDLYPETIDNR
In the case of B1, the “ability to reduce PreQ0” value [1] is reported as “significantly decreased”.

B2: YkvM: B. subtilis QueF Class I protein, SEQ ID NO: 2 (protein)
chain: MTTRKESELEGVTLLGNQGTNYLFEYAPDVLESFPNKHVNRDYFVKFNCPEFTSLCPKTGQPDFATIYISYIPDEKMVESKSLKLYLFSFRNHGDFHEDCMNIIMNDLIELMDPRYIEVWGKFTPRGGISIDPYTNYGKPGTKYEKMAEYRMMNHDLYPETIDNR
For B2, the GTP cyclohydrolase activity [2] was “no GTP cyclohydrolase activity was detected”.

B3: YqcD: E. coli QueF Class II protein, SEQ ID NO: 4 (protein)
chain: MSSYANHQALAGLTLGKSTDYRDTYDASLLQGVPRSLNRDPLGLKADNLPFHGTDIWTLYELSWLNAKGLPQVAVGHVELDYTSVNLIESKSFKLYLNSFNQTRFNNWDEVRQTLERDLSTCAQGKISVALYRLDELEGQPIGHFNGTCIDDQDITIDNYEFTTDYLENATCGEKVVEETLVSHLLKSNCLITHQPDWGSLQIQYRGRQIDREKLLRYLVSFRHHNEFHEQCVERIFNDLLRFCQPEKLSVYARYTRRGGLDINPWRSNSDFVPSTTRLVRQ
For B3, the GTP cyclohydrolase activity [2] was “no GTP cyclohydrolase activity was detected”.
